According to US11052154B2, “Ras protein degradation inducing molecule and pharmaceutical composition” (Tokyo University of Science Foundation, priority 2016, dated 2021):

Biological target: T1, endogenous wild-type H-Ras protein (Homo sapiens, UniProt P01112)
T1 construct: an endogenous wild-type K-Ras protein and wild-type H-Ras protein; endogenous in cells; host or cells: HeLa
Assay: Degradation of endogenous wild-type H-Ras protein in HeLa cells, Western blot analysis
Assay type: cell-based
Conditions: 48 hours after addition, vs control (DMSO), FIG. 5
Procedure: In Example 6, degradation (knockdown) of an endogenous wild-type K-Ras protein and wild-type H-Ras protein in HeLa cells to which TUS-007 had been added was evaluated by Western blot analysis.
HeLa cells were seeded in a 24-well plate at a cell density of 8×10^4 cells/well, and then cultured under conditions of 37° C. and 5 vol % CO2 for 16 hours.
After 16 hours from cell seeding, TUS-007 was added to HeLa cells as follows. As a medium, a serum-free medium (37° C.) in which 1 mass % L-glutamine solution (Sigma-Aldrich) was added to D-MEM (high D-glucose, phenol red, sodium pyruvate (Wako Pure Chemical Industries, Ltd.)) was used. It is noted that the L-glutamine solution was added immediately before use. A DMSO solution containing TUS-007 was mixed with the medium so that the concentration of DMSO was 1 vol %, and added to each well at 500 μL/well, and cultured under conditions of 37° C. and 5 vol % CO2. As a control, DMSO was used. […]
After electrophoresis, proteins were transferred to a PVDF membrane (Immobion™-P, Millipore) under conditions of 100 V and 2 hours using a tank-type blotting device and a transfer buffer (25 mM Tris-HCl, 195 mM glycine, 0.01% SDS, 15% methanol). […] Subsequently, the membrane was treated with a chemiluminescence reagent Immobilon™ Western (Millipore), and then chemiluminescence was detected using a lumino image analyzer LAS-3000 (FUJIFILM Corporation). […]

T1 sequence (P01112 whole entry): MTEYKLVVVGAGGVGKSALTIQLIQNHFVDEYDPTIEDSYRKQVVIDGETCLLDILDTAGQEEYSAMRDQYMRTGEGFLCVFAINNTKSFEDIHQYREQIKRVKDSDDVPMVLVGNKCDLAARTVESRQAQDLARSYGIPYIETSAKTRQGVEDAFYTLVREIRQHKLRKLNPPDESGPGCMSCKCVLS

## CCC(C)[C@H](NC(=O)CCCCCCNC(=O)[C@H](CC(C)C)NC(=O)CNC(=O)c1cc(Cl)ccc1Cl)C(=O)Nc1ccc2[nH]c(Cc3c[nH]c4ccccc34)nc2c1 (stereo in doubt) [TUS-007]
  amount of the endogenous wild-type H-Ras protein (Western blot): the amount of the endogenous wild-type K-Ras protein and wild-type H-Ras protein was reduced
